According to paper PMC7912516, “New Antimicrobials Based on the Adarotene Scaffold with Activity against Multi-Drug Resistant Staphylococcus aureus and Vancomycin-Resistant Enterococcus” (Antibiotics, 2021):
Several values for one entry are separate records, joined by “and”; a condition that tells them apart may be missing. Identical values can stand only once. Like-named read-outs stand apart in the source and are kept apart here.

Key:
[1] = tested on: methicillin-resistant S. aureus (MRSA) strain MW2; design: method as in PMID 29590091; conditions: ref [12]; cited from earlier work
[2] = tested on: E. faecalis strain 1 (MDR clinical isolate); experiment: MIC/MBC by broth micro-dilution (CLSI); assay type: cell-based, Enterococcus faecalis; conditions: for MBC: in square brackets
Experimental: (§1) The compounds were initially tested with a methicillin-resistant S. aureus and an E. faecalis clinical isolates (details in the experimental section), two MDR strains according to definition by Magiorakos et al.. The activity of studied compounds was assessed by broth micro-dilution method. Minimal Inhibitory Concentration (MIC), and Minimal Bactericidal Concentration (MBC) were determined and possible bacteriostatic or bactericidal activity was also investigated.
(§2) MICs and MBCs were determined according to CLSI (Clinical and Laboratory Standards Institute) guidelines, in triplicate. Results are shown as modal values of the three replicates. According to MIC and MBC data, the killing rate was calculated as the ratio between MBC and MIC on which basis it is possible to define the compounds tested as bactericides (killing rate = 1–4), or bacteriostatic (killing rate > 4).
(§3) Preparation of the solution containing molecules: for each molecule to be tested, solutions were made as DMSO stock, with a concentration of 2.560 mg/mL. Scalar dilutions were than prepared directly on plates by using Mueller Hinton Broth (MHB) as a growth medium (range 0.5–256 µg/mL).
(§4) Bacterial suspension preparation: cryostrains preserved at −80 °C were recovered by incubation in growth medium (Brain Heart Infusion Broth, BHI) for 24–48 h at 35 ± 2 °C followed by passages in agar growth medium (Columbia Blood Agar). Colonies with less than 30 h were suspended in MHB with the purpose to prepare a bacterial suspension with a turbidity of 0.5 MF, containing approximately 1.5 × 10^8 cfu/mL. This suspension was than diluted in MHB until reaching a final concentration of 5 × 10^4 CFU/well. Simultaneously, check in broth-microdilution only with solvent (in order to exclude that the effect of growth inhibition might be due to the drug solution solvent), positive growth control in absence of DMSO and drug, and negative purity control only with injection broth were performed.
E. faecalis strain 1 (collection, MDR) vanA/B negative; aminoglycosides high-level resistant to aminoglycosides (gentamicin and streptomycin) and ampicillin.

[3] = tested on: tumor cell line H-460 NCI; experiment: Cytotoxic activity, inhibition of cell growth; assay type: cell-based; conditions: Homo sapiens, NCI-H460; H-460 cell line, unpublished results; ± SD; read-out: IC50 (concentration required for 50% inhibition of cell growth)
Description: Table 1 Antimicrobial activity of adarotene derivatives 1–20 against MDR clinical strains of S. aureus and E. faecalis and cytotoxic activity. | column: IC50 ^a (µM)

[4] = tested on: S. aureus strain 1 (MDR clinical isolate, MRSA, mecA positive); experiment: MIC/MBC by broth micro-dilution (CLSI); assay type: cell-based, Staphylococcus aureus; conditions: S. aureus Strain 1; for MBC: in square brackets
Experimental: as §1, §2, §3, §4
S. aureus strain 1 (collection, MDR): mecA positive; MRSA, β-lactamase positive, resistant to ciprofloxacin, gentamicin and erythromycin.

[5] = Enterococcus faecalis, modal value of three replicates, read-out: MIC
[6] = Enterococcus faecalis, modal value, read-out: MIC
[7] = Staphylococcus aureus, MRSA, modal value of three replicates, read-out: MIC
[8] = Staphylococcus aureus, MRSA, modal value, read-out: MIC
[9] = Enterococcus faecalis, modal value
[10] = modal value of three replicates
[11] = Staphylococcus aureus, MRSA, modal value

For `O=C(O)c1ccc2cc(-c3ccc(O)c(C45CC6CC(CC(C6)C4)C5)c3)ccc2c1` [CD437], the “activity against MRSA strain MW2” value [1] is listed as “exhibit activity”.

For `O=C(O)c1ccc(-c2ccc3cc(O)c(C45CC6CC(CC(C6)C4)C5)cc3c2)cc1` [CD1530], the “activity against MRSA strain MW2” value [1] is given as “exhibit activity”.

`CCCCC/C=C\C/C=C\CCCCCCCC(=O)Oc1ccc(-c2ccc(/C=C/C(=O)O)cc2)cc1C12CC3CC(CC(C3)C1)C2` [Compound 3] gave an MIC [2, 5] of 128 µg/mL, an MIC [2, 6] of 201 µM and an IC50 [3] of 7.8 ± 0.7 µM. The MIC [4, 7] was 32 µg/mL and the MIC [4, 8] was 50 µM.

For `N#C/C(=C\c1ccc(-c2ccc(O)c(C34CC5CC(CC(C5)C3)C4)c2)cc1)C(=O)O` [Compound 9], the MBC [2, 9] was 4 µg/mL and 10 µM, the MIC [2, 5] was 1 to 4 µg/mL and the MIC [2, 6] was 2 µM. The MIC [2, 10] was 1 µg/mL, the IC50 [3] was greater than 10 µM and the MIC [4, 10] was 2 µg/mL. For the same compound, the MIC [4, 7] was 2 to 4 µg/mL, the MIC [4, 8] was 5 µM and the MBC [4, 11] was 4 µg/mL and 10 µM.

In the case of `O=C(O)/C=C/c1ccc(-c2cc(CNC(=O)Nc3ccccc3)c(O)c(C34CC5CC(CC(C5)C3)C4)c2)cc1` [Compound 14], the MBC [2, 9] is reported as 16 µg/mL and 31 µM, the MIC [2, 5] is reported as 4 µg/mL and the MIC [2, 6] is reported as 8 µM. The IC50 [3] was greater than 10 µM, the MIC [4, 7] was 8 µg/mL and the MIC [4, 8] was 15 µM. For the same compound, the MBC [4, 11] was 8 µg/mL and 15 µM.
